Data: US11267825B2 (AICURIS GMBH & CO. KG, priority 2017, dated 2022)

Columns and labels:
HBV = test: Determination of HBV DNA from the supernatants of HepAD38 cells (anti-HBV activity); format: cell-based, hepatitis B virus; conditions: Hepatitis B virus, 144 h; HBV DNA in HepAD38 supernatant at day 6; read-out: Cell Activity (EC50)
Outline: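 HepAD38 cells (60,000/well) were treated with half-log compound dilutions in tetracycline-free medium to induce HBV production. On day 6, HBV DNA was purified from filtered supernatant and quantified by real-time PCR against plasmid standards. EC50 values came from non-linear regression of relative copy numbers, typically from three experiments in triplicate.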

HBV core protein = HBV core protein (UniProt P03146); format: biochemical; conditions: read-out: Assembly Activity (IC50); BODIPY-FL labelled core protein, assembly started with NaCl, read after 6 min
Outline: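 Fluorescence-quenching assembly assay using E. coli-expressed core protein 1–149 plus Cys150, labelled with BODIPY-FL maleimide, at 1.0–2.0 μM in 50 mM HEPES pH 7.5, 0.5% DMSO. Assembly started with NaCl to […]; fluorescence (ex 477/em 525 nm) read after 6 min. EC50 by non-linear regression, 8-point 0.5-log dilutions.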

Chain of HBV core protein (P03146 whole entry, looked up): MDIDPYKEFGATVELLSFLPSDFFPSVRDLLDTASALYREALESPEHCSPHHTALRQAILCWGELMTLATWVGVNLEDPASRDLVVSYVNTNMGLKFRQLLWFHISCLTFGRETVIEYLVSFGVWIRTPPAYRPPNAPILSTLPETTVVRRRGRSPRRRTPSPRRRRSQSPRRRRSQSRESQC

Structure (SMILES) | EC50 (HBV) | IC50 (HBV core protein)
Cc1cc(C)c2cc(C(=O)N3CCc4nc(N)sc4C3)[nH]c2c1 [Example 138, 5-(4,6-dimethyl-1H-indole-2-carbonyl)-4H,5H,6H,7H-[1,3]thiazolo[5,4-c]pyridin-2-amine] | 1 to 10 µM | < 5 µM
Cc1cc(Cl)cc2cc(C(=O)N3CCc4nc(N)sc4C3)[nH]c12 [Example 139, 5-(5-chloro-7-methyl-1H-indole-2-carbonyl)-4H,5H,6H,7H-[1,3]thiazolo[5,4-c]pyridin-2-amine] | < 100 µM | < 100 µM
O=C(c1cc2c(Cl)cc(F)cc2[nH]1)N1CCc2nc(NC3CCOC3)sc2C1 (centres unmarked) [Example 140, 5-(4-chloro-6-fluoro-1H-indole-2-carbonyl)-N-(oxolan-3-yl)-4H,5H,6H,7H-[1,3]thiazolo[5,4-c]pyridin-2-amine] | < 1 µM | < 5 µM
O=C(c1cc2ccccc2[nH]1)N1CCc2nc(O)sc2C1 [Example 141, 5-(1H-indole-2-carbonyl)-4H,5H,6H,7H-[1,3]thiazolo[5,4-c]pyridin-2-ol] | 1 to 10 µM | < 100 µM
CC(O)CNc1nc2c(s1)CN(C(=O)c1cc3c(Cl)cc(F)cc3[nH]1)CC2 (centres unmarked) [Example 142, 1-{[5-(4-chloro-6-fluoro-1H-indole-2-carbonyl)-4H,5H,6H,7H-[1,3]thiazolo[5,4-c]pyridin-2-yl]amino}propan-2-ol] | < 1 µM | < 5 µM
Nc1nc2c(s1)CN(C(=O)c1cc3c(F)cc(Br)cc3[nH]1)CC2 [Example 143, 5-(6-bromo-4-fluoro-1H-indole-2-carbonyl)-4H,5H,6H,7H-[1,3]thiazolo[5,4-c]pyridin-2-amine] | < 1 µM | < 5 µM
CC(O)CNc1nc2c(s1)CN(C(=O)c1cc3c(F)ccc(F)c3[nH]1)CC2 (centres unmarked) [Example 144, 1-{[5-(4,7-difluoro-1H-indole-2-carbonyl)-4H,5H,6H,7H-[1,3]thiazolo[5,4-c]pyridin-2-yl]amino}propan-2-ol] | < 1 µM | < 5 µM
Nc1nc2c(s1)CN(C(=O)c1cc3c([N+](=O)[O-])cccc3[nH]1)CC2 [Example 145, 5-(4-nitro-1H-indole-2-carbonyl)-4H,5H,6H,7H-[1,3]thiazolo[5,4-c]pyridin-2-amine] | < 1 µM | < 5 µM
Nc1nc2c(s1)CN(C(=O)c1cc3c(C(F)(F)F)cccc3[nH]1)CC2 [Example 146, 5-(4-(trifluoromethyl)-1H-indole-2-carbonyl)-4H,5H,6H,7H-[1,3]thiazolo[5,4-c]pyridin-2-amine] | < 1 µM | < 5 µM
Nc1nc2c(s1)CN(C(=O)c1cc3c(F)cc(Cl)cc3[nH]1)CC2 [Example 147, 5-(6-chloro-4-fluoro-1H-indole-2-carbonyl)-4H,5H,6H,7H-[1,3]thiazolo[5,4-c]pyridin-2-amine] | < 1 µM | < 5 µM
Nc1nc2c(s1)CN(C(=O)c1cc3ccc(Cl)c(Cl)c3[nH]1)CC2 [Example 148, 5-(6,7-dichloro-1H-indole-2-carbonyl)-4H,5H,6H,7H-[1,3]thiazolo[5,4-c]pyridin-2-amine] | 1 to 10 µM | < 5 µM
Cc1cccc2[nH]c(C(=O)N3CCc4nc(N)sc4C3)cc12 [Example 149, 5-(4-methyl-1H-indole-2-carbonyl)-41H,5H,6H,7H-[1,3]thiazolo[5,4-c]pyridin-2-amine] | 1 to 10 µM | < 5 µM
Cc1ccc2cc(C(=O)N3CCc4nc(N)sc4C3)[nH]c2c1 [Example 150, 5-(6-methyl-1H-indole-2-carbonyl)-4H,5H,6H,7H-[1,3]thiazolo[5,4-c]pyridin-2-amine] | < 1 µM | < 5 µM
COc1nc2c(s1)CN(C(=O)c1cc3ccccc3[nH]1)CC2 [Example 151, 2-{2-methoxy-4H,5H,6H,7H-[1,3]thiazolo[5,4-c]pyridine-5-carbonyl}-1H-indole] | 1 to 10 µM | < 100 µM
CCOc1nc2c(s1)CN(C(=O)c1cc3ccccc3[nH]1)CC2 [Example 152, 2-{2-ethoxy-4H,5H,6H,7H-[1,3]thiazolo[5,4-c]pyridine-5-carbonyl}-1H-indole] | 1 to 10 µM | < 100 µM
COc1cccc2cc(C(=O)N3CCc4nc(N)sc4C3)[nH]c12 [Example 153, 5-(7-methoxy-1H-indole-2-carbonyl)-4H,5H,6H,7H-[1,3]thiazolo[5,4-c]pyridin-2-amine] | < 100 µM | < 100 µM
Nc1nc2c(s1)CN(C(=O)c1cc3cccc(Cl)c3[nH]1)CC2 [Example 154, 5-(7-chloro-1H-indole-2-carbonyl)-4H,5H,6H,7H-[1,3]thiazolo[5,4-c]pyridin-2-amine] | < 1 µM | < 5 µM
Nc1nc2c(s1)CN(C(=O)c1cc3cc(Cl)ccc3[nH]1)CC2 [Example 155, 5-(5-chloro-1H-indole-2-carbonyl)-4H,5H,6H,7H-[1,3]thiazolo[5,4-c]pyridin-2-amine] | 1 to 10 µM | < 5 µM
Nc1nc2c(s1)CN(C(=O)c1cc3ccc(Cl)cc3[nH]1)CC2 [Example 156, 5-(6-chloro-1H-indole-2-carbonyl)-4H,5H,6H,7H-[1,3]thiazolo[5,4-c]pyridin-2-amine] | < 1 µM | < 5 µM

Structure (SMILES) | EC50 (HBV) | IC50 (HBV core protein)
O=C(c1cc2ccccc2[nH]1)N1CCc2nc(NCCO)sc2C1 [Example 157, 2-{[5-(1H-indole-2-carbonyl)-4H,5H,6H,7H-[1,3]thiazolo[5,4-c]pyridin-2-yl]amino}ethan-1-ol] | < 1 µM | < 5 µM
O=C(c1cc2ccccc2[nH]1)N1CCc2nc(OCc3ccccc3)sc2C1 [Example 158, 2-[2-(benzyloxy)-4H,5H,6H,7H-[1,3]thiazolo[5,4-c]pyridine-5-carbonyl]-1H-indole] | 1 to 10 µM | < 100 µM
Nc1nc2c(s1)CN(C(=O)c1cc3cc(F)c(F)cc3[nH]1)CC2 [Example 159, 5-(5,6-difluoro-1H-indole-2-carbonyl)-4H,5H,6H,7H-[1,3]thiazolo[5,4-c]pyridin-2-amine] | < 1 µM | < 5 µM
Nc1nc2c(s1)CN(C(=O)c1cc3cc(F)cc(F)c3[nH]1)CC2 [Example 160, 5-(5,7-difluoro-1H-indole-2-carbonyl)-4H,5H,6H,7H-[1,3]thiazolo[5,4-c]pyridin-2-amine] | < 1 µM | < 5 µM
Cc1nc2c(s1)CN(C(=O)c1cc3cc(Cl)ccc3[nH]1)CC2 [Example 161, 5-chloro-2-{2-methyl-4H,5H,6H,7H-[1,3]thiazolo[5,4-c]pyridine-5-carbonyl}-1H-indole] | 1 to 10 µM | 5 to 10 µM
Cc1nc2c(s1)CN(C(=O)c1cc3ccc(Cl)cc3[nH]1)CC2 [Example 162] | < 1 µM | < 5 µM
Cc1nc2c(s1)CN(C(=O)c1cc3cc(F)cc(F)c3[nH]1)CC2 [Example 163] | < 1 µM | < 5 µM
Cc1nc2c(s1)CN(C(=O)c1cc3cc(F)c(F)cc3[nH]1)CC2 [Example 164] | < 1 µM | < 5 µM
Cc1nc2c(s1)CN(C(=O)c1cc3c(F)cc(Cl)cc3[nH]1)CC2 [Example 165] | 1 to 10 µM | < 5 µM
O=C(c1cc2ccccc2[nH]1)N1CCc2nc(N3CCOCC3)sc2C1 [Example 166, 2-[2-(morpholin-4-yl)-4H,5H,6H,7H-[1,3]thiazolo[5,4-c]pyridine-5-carbonyl]-1H-indole] | 1 to 10 µM | < 100 µM
Nc1nc2c(s1)CN(C(=O)c1cc3c(Cl)cc(F)cc3[nH]1)CC2 [Example 167, 5-(4-chloro-6-fluoro-1H-indole-2-carbonyl)-4H,5H,6H,7H-[1,3]thiazolo[5,4-c]pyridin-2-amine] | < 1 µM | < 5 µM
Nc1nc2c(s1)CN(C(=O)c1cc3c(Cl)cc(Cl)cc3[nH]1)CC2 [Example 168, 5-(4,6-dichloro-1H-indole-2-carbonyl)-4H,5H,6H,7H-[1,3]thiazolo[5,4-c]pyridin-2-amine] | < 1 µM | < 5 µM
Cc1cc(F)cc2[nH]c(C(=O)N3CCc4nc(N)sc4C3)cc12 [Example 169, 5-(6-fluoro-4-methyl-1H-indole-2-carbonyl)-4H,5H,6H,7H-[1,3]thiazolo[5,4-c]pyridin-2-amine] | < 1 µM | < 5 µM
Nc1nc2c(s1)CN(C(=O)c1cc3c(F)ccc(F)c3[nH]1)CC2 [Example 170, 5-(4,7-difluoro-1H-indole-2-carbonyl)-4H,5H,6H,7H-[1,3]thiazolo[5,4-c]pyridin-2-amine] | < 1 µM | < 5 µM
Nc1nc2c(s1)CN(C(=O)c1cc3cccc(Br)c3[nH]1)CC2 [Example 171, 5-(7-bromo-1H-indole-2-carbonyl)-4H,5H,6H,7H-[1,3]thiazolo[5,4-c]pyridin-2-amine] | < 1 µM | < 5 µM
Nc1nc2c(s1)CN(C(=O)c1cc3c(F)c(F)ccc3[nH]1)CC2 [Example 172, 5-(4,5-difluoro-1H-indole-2-carbonyl)-4H,5H,6H,7H-[1,3]thiazolo[5,4-c]pyridin-2-amine] | < 1 µM | < 5 µM
Nc1nc2c(s1)CN(C(=O)c1cc3cccc(OC(F)F)c3[nH]1)CC2 [Example 173, 5-(7-(difluoromethoxy)-1H-indole-2-carbonyl)-4H,5H,6H,7H-[1,3]thiazolo[5,4-c]pyridin-2-amine] | 1 to 10 µM | < 5 µM
Nc1nc2c(s1)CN(C(=O)c1cc3cccc(OC(F)(F)F)c3[nH]1)CC2 [Example 174, 5-(7-(trifluoromethoxy)-1H-indole-2-carbonyl)-4H,5H,6H,7H-[1,3]thiazolo[5,4-c]pyridin-2-amine] | 1 to 10 µM | < 5 µM
